Key:
Assay type in all cases: in vivo, human
[1] = test system: physiologic FDG uptake in the intestinal tract; assay: PET-CT scan studies of intestinal FDG uptake with other rifaximin regimens (Examples 2-6)
Protocol: Patients scheduled for clinically-indicated PET-CT scan are administered rifaximin 550 mg twice daily (BID) for five days prior to their scans. Each patient has their prior scheduled PET-CT used as control; that is, their prior PET-CT scan is evaluated as a pre-treatment baseline for intestinal FDG uptake (paired controls). The PET-CT scans of a randomly-selected cohort of patients also scheduled for clinically-indicated PET-CT during the same time period are used as independent controls. Cecal SUVMax (maximum-pixel-value standardized uptake value) and SUVAvg (average standardized uptake value) for all scans are measured by a radiologist blinded to treatment/control status and normalized to liver SUV, which is selected as the reference for normal tissue activity. A qualitative score of colonic uptake (0-4) is also assessed. Statistical analysis was performed by comparing mean SUV cecum/liver by paired t-test (pre & post) or unpaired t-test (treated & controls). The effect of rifaximin on a global measure of colonic SUV is also measured. Patients scheduled for clinically-indicated PET-CT scan are administered rifaximin 550 mg twice daily (BID) for seven days prior to their scans. Each patient has their prior scheduled PET-CT used as control; that is, their prior PET-CT scan is evaluated as a pre-treatment baseline for intestinal FDG uptake (paired controls). The PET-CT scans of a randomly-selected cohort of patients also scheduled for clinically-indicated PET-CT during the same time period are used as independent controls. Cecal SUVMax (maximum-pixel-value standardized uptake value) and SUVAvg (average standardized uptake value) for all scans are measured by a radiologist blinded to treatment/control status and normalized to liver SUV, which is selected as the reference for normal tissue activity. A qualitative score of colonic uptake (0-4) is also assessed. Statistical analysis was performed by comparing mean SUV cecum/liver by paired t-test (pre & post) or unpaired t-test (treated & controls). The effect of rifaximin on a global measure of colonic SUV is also measured. Patients scheduled for clinically-indicated PET-CT scan are administered rifaximin 550 mg twice daily (BID) for between 48 hours to five days prior to their scans. Each patient has their prior scheduled PET-CT used as control; that is, their prior PET-CT scan is evaluated as a pre-treatment baseline for intestinal FDG uptake (paired controls). […] Cecal SUVMax (maximum-pixel-value standardized uptake value) and SUVAvg (average standardized uptake value) for all scans are measured by a radiologist blinded to treatment/control status and normalized to liver SUV, which is selected as the reference for normal tissue activity. A qualitative score of colonic uptake (0-4) is also assessed. […] The effect of rifaximin on a global measure of colonic SUV is also measured. […] Each patient has their prior scheduled PET-CT used as control; that is, their prior PET-CT scan is evaluated as a pre-treatment baseline for intestinal FDG uptake (paired controls). […] Cecal SUVMax (maximum-pixel-value standardized uptake value) and SUVAvg (average standardized uptake value) for all scans are measured by a radiologist blinded to treatment/control status and normalized to liver SUV, which is selected as the reference for normal tissue activity. A qualitative score of colonic uptake (0-4) is also assessed. […]

[2] = Adverse events in the rifaximin-treated group (Example 1); conditions: rifaximin 550 mg BID for two days, 30 patients
Protocol: (§1) This example relates to a study to determine whether an oral antibiotic, rifaximin, administered prior to PET-CT scan can reduce physiologic FDG uptake in the intestinal tract. Thirty (30) patients scheduled for clinically-indicated PET-CT scans were enrolled to receive rifaximin 550 mg twice daily (BID) for two days prior to their scans. Each patient had their prior scheduled PET-CT used as control; that is, their prior PET-CT scan was evaluated as a pre-treatment baseline for intestinal FDG uptake (paired controls). The PET-CT scans of a randomly-selected cohort of 90 patients also scheduled for clinically-indicated PET-CT during the same time period were also used as controls (independent controls). All images were stripped of identifying data, and SUVMax (maximum-pixel-value standardized uptake value) and SUVAvg (average standardized uptake value) for all scans were measured by a radiologist blinded to treatment/control status and normalized to liver SUV, which was selected as the reference for normal tissue activity. A qualitative score of colonic uptake (0-4) was also assessed. Statistical analysis was performed by comparing mean SUV cecum/liver by paired t-test (pre & post) or unpaired t-test (treated & controls).

[3] = test system: physiologic FDG uptake in the intestinal tract; assay: PET-CT scan study of intestinal FDG uptake after rifaximin pre-treatment (Example 1)
Protocol: as §1

CO[C@H]1/C=C/O[C@@]2(C)Oc3c(C)c(O)c4c(O)c(c5c(nc6cc(C)ccn65)c4c3C2=O)NC(=O)/C(C)=C\C=C\[C@H](C)[C@H](O)[C@@H](C)[C@@H](O)[C@@H](C)[C@H](OC(C)=O)[C@@H]1C [rifaximin, (2S,16Z,18E,20S,21S,22R, 23R,24R,25S,26S,27S,28E)-5,6,21,23,25 Pentahydroxy-27-methoxy-2,4,11,16,20,22,24,26-octamethyl-2,7-(epoxypentadeca-(1,11,13)trienimino)benzofuro(4,5-e)pyrido(1,2,-a)benzimidazole-1,15(2H)-dione,25-acetate]
FDG uptake compared to pre-rifaximin scan ([1]; Example 2: 550 mg BID for five days prior to PET-CT scans): significant reduction
FDG uptake compared to pre-rifaximin scan ([1]; Example 3: 550 mg BID for seven days prior to PET-CT scans): significant reduction
FDG uptake compared to pre-rifaximin scan ([1]; Example 4: 550 mg BID for between 48 hours to 5 days prior to PET-CT scans): significant reduction
FDG uptake compared to pre-rifaximin scan ([1]; Example 5: 1100 mg per day for 48 hours to seven days prior to PET-CT scans): significant reduction
FDG uptake compared to pre-rifaximin scan ([1]; Example 6: solid dispersion with about 10 mg to about 100 mg rifaximin, once per day up to TID, 48 hours to seven days prior to PET-CT scans): significant reduction
adverse events [2]: No adverse events were reported
OR for overall colonic SUV score <1 [3]: 3.8
patients with no major change in cecal SUVmax/liver ratio after rifaximin [3]: 14%
scans with overall colonic SUV score <1 [3]: 53%
difference (reduction) in cecal SUVmax / FDG activity in the cecum between pre- and post-rifaximin images ([3]; 550 mg BID for two days, paired pre-rifaximin scans, p=0.002): 26%
mean cecal SUVMax in patients whose SUVMax was >2 in their prior scan ([3]; 550 mg, 48 h): 3.4
cecal SUVmax levels in patients with high baseline levels ([3]; after 2 days of rifaximin pre-treatment): significantly lower levels
patients with higher cecal SUVmax/liver ratio post-rifaximin ([3]; patients (n=27) with cecal SUVmax/liver ratio >2 in pre-rifaximin scans, 2/27): 7%
patients with lower cecal SUVmax/liver ratio after rifaximin ([3]; patients (n=27) with cecal SUVmax/liver ratio >2 in pre-rifaximin scans, 21/27, p=0.0005): 78%
patients with down-grading of FDG signal intensity (overall colonic SUV signal) ([3]; patients with an initial high cecal SUVMax, FIG. 4): 80%
Normalized (mean) cecal SUVAvg ([3]; post-rifaximin scan, 550 mg BID two days, 2.0 without rifaximin, p=0.02 paired t-test): 1.6
Mean colon SUVmax ([3]; post-rifaximin scan, 550 mg BID two days, pre-rifaximin 4.0, p=0.7): 3.8
distribution of overall colonic SUV grades ([3]; post-rifaximin scans, score 0-4 by blinded reader, FIG. 4): left-shift in the distribution of colonic SUV grades from higher to lower grades
mean cecal SUVMax, rifaximin-treated patients vs random control scans ([3]; random control scans mean 4.2, no significant difference, p=0.2 unpaired t-test): 3.4
FDG uptake compared to pre-rifaximin scan ([3]; rifaximin for 2 days prior to PET-CT scans): significant reduction
qualitative score of whole colonic uptake (0-4), mean ([3]; rifaximin pre-treated group, reduced from 2.3, p=0.07): 1.8
overall percentage of patients with grade of colonic FDG intensity >1 ([3]; with rifaximin compared to without rifaximin, FIG. 4): lower

Reference: US20160128990A1, “METHODS OF USING RIFAXIMIN IN POSITION EMISSION TOMOGRAPHY (PET) SCANS” (Salix Pharmaceuticals, Ltd, priority 2013, published 2016)
